Assay results reported in patent US4459294A, “Phosphoric and thiophosphoric esters of 5(3)-hydroxypyrazoles exerting an insecticidal action” (priority 1977, dated 1984).

Key:
[1] = test system: Musca domestica; assay: Biological activity on Musca domestica (Diptera), topical application; format: in vivo; details: 0.5 γ/ins, 24 hours after treatment
Experimental: Biological activity on Musca domestica (Diptera)
4-days old adults were treated, by topical application by microsyringe, with an acetonic solution of the products under examination.
The mortality percentage (insects treated with acetone only=0) was determined 24 hours after the treatment.

[2] = test system: Culex pipiens adults; assay: Biological activity on Culex pipiens (Diptera): adults; format: in vivo; details: 0.2 g/m^2, 24 hours after beginning of treatment, read-out: percentage of reduction of the infestation (mortality percentage), Culex ad.
Experimental: Biological activity on Culex pipiens (Diptera): adults
Whatman n°1 paper rectangles were treated uniformly with an acetonic solution of the products under examination. After evaporation of the solvent, each treated paper rectangle was used to line the inside wall of a perspex cylinder (model OMS). The paper-lined perspex cylinder was then closed with a net after having introduced into it 2-3 days old adult females. After one hour from the start of the contact, the insects were transferred into a similar cylinder likewise lined with untreated paper, and were fed with a sugary solution.
The mortality percentage (untreated insects=0) was determined 24 hours after the beginning of the treatment.

[3] = test system: Blatta orientalis; assay: Biological activity on Blatta orientalis (Ortoptera); format: in vivo; details: 0.1 g/m^2, 48 hours after start of treatment, read-out: percentage of reduction of the infestation (percentage mortality), Blatta
Experimental: Biological activity on Blatta orientalis (Ortoptera)
The bottom and side walls of glass beakers were treated uniformly with an acetonic solution of the products under examination. After evaporation of the solvent in each beaker, into the same were then introduced ten, 80-100 days old neanides, whereafter they were closed with a lid of metal netting. After 24 hours from the beginning of the treatment, the insects were transferred into untreated glass beakers, and suitably nourished. The percentage mortality (untreated insects=0) was determined 48 hours after the start of the treatment.

[4] = test system: Macrosiphum euphorbiae; assay: Biological activity on Macrosiphum euphorbiae (aphides); format: in vivo; set-up: tested at 0.01 permill; details: 0.01 permill.; 24 hours after treatment
Experimental: Biological activity on Macrosiphum euphorbiae (aphides)
Small potato plants grown in pots were infested with adult female aphides and, after several hours, were sprinkled with an aqueous dispersion of the products under examination.
The percentage death rate was determined 24 hours after treatment (untreated plants=0).

[5] = test system: Leptinatarsa decomlineata; assay: Biological activity on Leptinatarsa decomlineata (Coledptera), 4-day old larvae; format: in vivo; details: 0.1 permill.; 48 hours after treatment
Experimental: Biological activity on Leptinatarsa decomlineata (Coledptera)
Small, pot-grown potato-plants were infested with 4-day old larvae, and then were sprinkled with an aqueous dispersion of the products under examination. The percentage death rate (untreated plants=0) was determined 48 hours after treatment.

[6] = Toxicity by os on rats; details: rat, in vivo, po
[7] = test system: Pieris brassicae; assay: Biological activity on Pieris brassicae (Lepitoptera), 5-day old larvae; format: in vivo; details: 0.1 permill.; 48 hours after treatment
Experimental: Biological activity on Pieris brassicae (Lepitoptera)
Cut cauliflower leaves were sprinkled with an aqueous dispersion of the products under examination. After drying, the leaves were infested with 5-day old larvae. The percentage death rate of the larvae (untreated leaves=0) was determined 48 hours after treatment.

[8] = test system: Tetranychus urticae; assay: Biological activity on Tetranychus urticae (Acari) adults; format: in vivo; details: 0.01 permill.; 24 hours after treatment
Experimental: Biological Activity on Tetranychus urticae (Acari) adults
Small bean leaf discs were infected with adult acari and were then sprinkled with an aqueous dispersion of the products under examination. The percentage of mortality was determined 24 hours after the treatment (untreated discs, mortality=0).

[9] = test system: Spodoptera littoralis; assay: Biological activity on Spodoptera littoralis (Lepidoptera), 5-days old larvae; format: in vivo; details: 0.1 permill.; 48 hours after treatment
Experimental: Biological activity on Spodoptera littoralis (Lepidoptera)
Cut tobacco leaves were sprinkled with an aqueous dispersion of the products under examination. After drying, the leaves were infested with 5-days old larvae. The percentage mortality of the larvae was determined 48 hours after treatment (untreated leaves, mortality=0).

[10] = test system: Culex pipiens larvae; assay: Biological activity on Culex pipiens (diptera) larvae; format: in vivo; details: 24 hours after treatment, read-out: percentage of reduction of the infestation (percentage death rate), Culex larvae
Experimental: Biological activity on Culex pipiens (diptera) larvae
Into glasses containing an aqueous dispersion of the products under examination, were introduced third and fourth age mosquito larvae. The percentage death rate of the larvae (glasses containing pure water=0) was determined 24 hours after treatment.

[11] = test system: Meloidogyne incognita; assay: Biological activity on Meloidogyne incognita (Nematoda); format: in vivo; details: 20 ppm; 21 days after transplanting
Experimental: Biological activity on Meloidogyne incognita (Nematoda)
Aliquot parts of a 1:1 mixture of field soil and sand, infested by Nematoda larvae and eggs, were treated by uniformly mixing same with an aqueous dispersion of the products under examination. The soil was then distributed into plastic pots, and after 5 days into each pot there were transplanted 5 tomato plants about 20 cm high. The survey of the results was carried out 21 days after the transplanting, by observing the roots of the plants extracted from the soil in order to ascertain the degree of infestation by counting the galls that have formed on them. The nematocide activity was expressed as a percentage of reduction of the infestation with respect to the witness plant (small plants transplanted into untreated soil, activity=0).

SMILES | percentage of reduction of the infestation (mortality percentage), Musca d. [1] [%] | mortality at 0.2 g/m2 [2] [%] | mortality at 0.1 g/m2 [3] [%] | percentage of reduction of the infestation (percentage death rate), Macrosiph. E. [4] [%] | percentage of reduction of the infestation (percentage death rate), Leptinot D. [5] [%] | LD50 [6] [mg/kg] | percentage of reduction of the infestation (percentage death rate of larvae), Pieris B [7] [%] | percentage of reduction of the infestation (percentage of mortality), Tetran U. [8] [%] | percentage of reduction of the infestation (percentage mortality of larvae), Spodoptera L [9] [%] | mortality at 0.2 ppm [10] [%] | percentage of reduction of the infestation, Meloidog. I. [11] [%]
CCOP(=S)(OCC)Oc1cc(Cl)nn1C(C)C [Compound 5] | 100 | 100 | 100 | 100 | 100 | 22 | 100 | 100 | 60 | 100 | 90
CCOP(=S)(OCC)Oc1cc(Cl)nn1CCC#N [Compound 7] | 100 | 70 | 100 | 100 | 100 | – | 100 | 100 | 100 | 100 | 100
CCOP(=S)(OC)Oc1cc(Cl)n(-c2ccc([N+](=O)[O-])cc2)n1 (stereo not drawn) [Compound 51] | 100 | 0 | – | 51 | 85 | – | 100 | 94 | 100 | 100 | 82
CCOP(=S)(OCC)Oc1cc(Cl)nn1CC [Compound 3] | 100 | 100 | 100 | 98 | 100 | – | 100 | 100 | 82 | 100 | 96
CCOP(=S)(OCC)Oc1cc(Cl)nn1-c1ccccc1 [Compound 2] | 100 | 100 | 100 | 40 | 97 | 33 | 100 | – | 100 | 100 | –
CCn1nc(Cl)cc1OP(=S)(OC)OC [Compound 21] | 100 | 100 | 100 | 100 | 100 | – | 100 | 100 | 70 | 100 | 100
CCOP(=S)(OCC)Oc1cc(Cl)n(-c2ccc([N+](=O)[O-])cc2)n1 [Compound 52] | 100 | 0 | 100 | 54 | 37 | – | 100 | 96 | 95 | 100 | 96
COP(=S)(OC)Oc1cc(Cl)nn1C(C)C [Compound 4] | 100 | 100 | 100 | 94 | 100 | 1100 | – | 80 | 80 | 100 | –
CCOP(=S)(OC)Oc1cc(Cl)nn1CC (stereo not drawn) [Compound 24] | 100 | 100 | 100 | 96 | 100 | – | 100 | 100 | 90 | 100 | 62
CCOP(=S)(OCC)Oc1cc(Cl)n[nH]1 [Compound 11] | – | – | – | – | – | 70 | – | – | – | – | –
CCOP(=S)(OCC)Oc1cc(C=C(Cl)Cl)nn1CCC#N [Compound 9] | 100 | 0 | 100 | 85 | 100 | – | 100 | 85 | 100 | 100 | –
CCOP(=S)(OCC)Oc1cc(Cl)nn1Cc1ccccc1 [Compound 29] | 100 | 5 | 100 | 60 | 100 | – | 100 | 100 | 100 | 100 | 59
CCOP(=S)(NC(C)C)Oc1cc(Cl)nn1C (stereo not drawn) [Compound 49] | 100 | 100 | 100 | 81 | 100 | – | 100 | 63 | 15 | 100 | –
